Reference: patent publication US20070015743A1, “Quinazoline derivatives as antitumor agents” (priority 2003, published 2007)

Assays:
EGFR tyrosine kinase = target: T1, EGFR tyrosine kinase (Homo sapiens, UniProt P00533); experiment: Protein tyrosine kinase phosphorylation assay, Test (a), EGFR; type: biochemical; conditions: read-out: IC50 (μM) Test (a): Inhibition of EGFR tyrosine kinase protein phosphorylation
T1 construct: Recombinant intracellular fragments of EGFR, erbB2 and erbB4; made in house; host or cells: baculovirus/Sf21 insect cells (cleared lysate used)
T1 sequence (P00533 669-1210 limits assumed): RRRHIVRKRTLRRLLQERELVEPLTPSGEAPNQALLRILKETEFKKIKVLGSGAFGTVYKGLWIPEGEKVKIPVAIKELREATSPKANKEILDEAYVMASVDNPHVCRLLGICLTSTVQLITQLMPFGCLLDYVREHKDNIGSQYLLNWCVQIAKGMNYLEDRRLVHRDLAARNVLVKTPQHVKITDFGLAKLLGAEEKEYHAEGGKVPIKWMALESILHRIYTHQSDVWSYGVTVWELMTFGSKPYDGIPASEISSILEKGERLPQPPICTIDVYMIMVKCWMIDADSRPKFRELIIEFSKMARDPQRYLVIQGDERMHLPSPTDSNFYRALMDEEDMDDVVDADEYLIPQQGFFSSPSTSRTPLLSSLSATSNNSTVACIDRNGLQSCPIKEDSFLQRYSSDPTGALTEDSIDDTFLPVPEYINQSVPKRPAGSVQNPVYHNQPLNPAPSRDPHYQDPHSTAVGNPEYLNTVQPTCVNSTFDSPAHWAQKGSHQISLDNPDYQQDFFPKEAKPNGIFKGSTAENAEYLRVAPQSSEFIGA
Experimental: This test measures the ability of a test compound to inhibit the phosphorylation of a tyrosine containing polypeptide substrate by EGFR tyrosine kinase enzyme.
(§1) Recombinant intracellular fragments of EGFR, erbB2 and erbB4 (accession numbers X00588, X03363 and L07868 respectively) were cloned and expressed in the baculovirus/Sf21 system. Lysates were prepared from these cells by treatment with ice-cold lysis buffer (20 mM N-2-hydroxyethylpiperizine-N′-2-ethanesulfonic acid (HEPES) pH7.5, 150 mM NaCl, 10% glycerol, 1% Triton X-100, 1.5 mM MgCl2, 1 mM ethylene glycol-bis(β-aminoethyl ether)N′,N′,N′,N′-tetraacetic acid (EGTA), plus protease inhibitors and then cleared by centrifugation.
Constitutive kinase activity of these recombinant proteins was determined by their ability to phosphorylate a synthetic peptide (made up of a random co-polymer of Glutamic Acid, Alanine and Tyrosine in the ratio of 6:3:1). […]
The immobilised phospho-peptide product of the reaction was detected by immunological methods. […] After further washing, HRP activity in each well of the plate was measured colorimetrically using 22′-Azino-di-[3-ethylbenzthiazoline sulfonate (6)]diammonium salt crystals (ABTS™ from Roche) as a substrate. Quantification of colour development and thus enzyme activity was achieved by the measurement of absorbance at 405 nm on a Molecular Devices ThermoMax microplate reader. […]

erbB2 tyrosine kinase = target: T2, erbB2 tyrosine kinase (Homo sapiens, UniProt P04626); experiment: Protein tyrosine kinase phosphorylation assay, Test (a), erbB2; type: biochemical; conditions: read-out: IC50 (μM) Test (a): Inhibition of erbB2 tyrosine kinase protein phosphorylation
T2 construct: Recombinant intracellular fragments of EGFR, erbB2 and erbB4; made in house; host or cells: baculovirus/Sf21 insect cells (cleared lysate used)
T2 sequence (P04626 676-1255 limits assumed): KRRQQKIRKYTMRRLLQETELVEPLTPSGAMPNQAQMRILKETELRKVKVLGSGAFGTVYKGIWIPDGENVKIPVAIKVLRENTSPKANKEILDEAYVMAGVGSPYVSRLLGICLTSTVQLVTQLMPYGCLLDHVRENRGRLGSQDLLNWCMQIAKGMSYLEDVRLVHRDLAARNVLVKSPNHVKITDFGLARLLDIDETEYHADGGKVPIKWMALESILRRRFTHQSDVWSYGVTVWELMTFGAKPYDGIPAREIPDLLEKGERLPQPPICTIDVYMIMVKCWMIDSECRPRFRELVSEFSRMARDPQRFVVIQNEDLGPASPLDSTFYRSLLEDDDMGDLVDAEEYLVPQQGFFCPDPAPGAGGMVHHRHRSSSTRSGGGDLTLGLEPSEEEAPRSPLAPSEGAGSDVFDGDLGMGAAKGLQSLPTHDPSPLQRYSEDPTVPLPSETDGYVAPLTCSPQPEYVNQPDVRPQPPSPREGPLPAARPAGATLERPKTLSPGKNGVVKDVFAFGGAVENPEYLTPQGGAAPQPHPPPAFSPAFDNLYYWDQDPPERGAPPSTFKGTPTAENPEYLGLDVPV
Experimental: as §1
Constitutive kinase activity of these recombinant proteins was determined by their ability to phosphorylate a synthetic peptide (made up of a random co-polymer of Glutamic Acid, Alanine and Tyrosine in the ratio of 6:3:1). Specifically, Maxisorb™ 96-well immunoplates were coated with synthetic peptide (0.2 μg of peptide in a […] phosphate buffered saline (PBS) solution and incubated at 4° C. overnight). Plates were washed in 50 mM HEPES pH 7.4 at room temperature to remove any excess unbound synthetic peptide. EGFR or erbB2 activities were assessed by incubation in peptide coated plates for 20 minutes at room temperature in 100 mM HEPES pH 7.4 at room temperature, adenosine trisphosphate (ATP) at Km concentration for the respective enzyme, 10 mM MnCl2, 0.1 mM Na3VO4, 0.2 mM DL-dithiothreitol (DTT), 0.1% Triton X-100 with test compound in DMSO (final concentration of 2.5%). […]
The immobilised phospho-peptide product of the reaction was detected by immunological methods. […] After further washing, HRP activity in each well of the plate was measured colorimetrically using 22′-Azino-di-[3-ethylbenzthiazoline sulfonate (6)]diammonium salt crystals (ABTS™ from Roche) as a substrate. Quantification of colour development and thus enzyme activity was achieved by the measurement of absorbance at 405 nm on a Molecular Devices ThermoMax microplate reader. Kinase inhibition for a given compound was expressed as an IC50 value. […] The range of phosphorylation was calculated from the positive (vehicle plus ATP) and negative (vehicle minus ATP) control values.

erbB2 = target: T3, erbB2 (Homo sapiens, UniProt P04626); experiment: Clone 24 phospho-erbB2 cell assay, Test (c); type: cell-based; conditions: MCF7 derived cell line overexpressing erbB2 (Clone 24 cells); read-out: IC50 (μM) Test (c): Inhibition of erbB2 tyrosine kinase protein phosphorylation
T3 construct: a cell line that overexpresses full length wild type erbB2 protein; expressed in transfected cells; host or cells: MCF7 (breast carcinoma) derived 'Clone 24' cells
T3 sequence (P04626 23-1255): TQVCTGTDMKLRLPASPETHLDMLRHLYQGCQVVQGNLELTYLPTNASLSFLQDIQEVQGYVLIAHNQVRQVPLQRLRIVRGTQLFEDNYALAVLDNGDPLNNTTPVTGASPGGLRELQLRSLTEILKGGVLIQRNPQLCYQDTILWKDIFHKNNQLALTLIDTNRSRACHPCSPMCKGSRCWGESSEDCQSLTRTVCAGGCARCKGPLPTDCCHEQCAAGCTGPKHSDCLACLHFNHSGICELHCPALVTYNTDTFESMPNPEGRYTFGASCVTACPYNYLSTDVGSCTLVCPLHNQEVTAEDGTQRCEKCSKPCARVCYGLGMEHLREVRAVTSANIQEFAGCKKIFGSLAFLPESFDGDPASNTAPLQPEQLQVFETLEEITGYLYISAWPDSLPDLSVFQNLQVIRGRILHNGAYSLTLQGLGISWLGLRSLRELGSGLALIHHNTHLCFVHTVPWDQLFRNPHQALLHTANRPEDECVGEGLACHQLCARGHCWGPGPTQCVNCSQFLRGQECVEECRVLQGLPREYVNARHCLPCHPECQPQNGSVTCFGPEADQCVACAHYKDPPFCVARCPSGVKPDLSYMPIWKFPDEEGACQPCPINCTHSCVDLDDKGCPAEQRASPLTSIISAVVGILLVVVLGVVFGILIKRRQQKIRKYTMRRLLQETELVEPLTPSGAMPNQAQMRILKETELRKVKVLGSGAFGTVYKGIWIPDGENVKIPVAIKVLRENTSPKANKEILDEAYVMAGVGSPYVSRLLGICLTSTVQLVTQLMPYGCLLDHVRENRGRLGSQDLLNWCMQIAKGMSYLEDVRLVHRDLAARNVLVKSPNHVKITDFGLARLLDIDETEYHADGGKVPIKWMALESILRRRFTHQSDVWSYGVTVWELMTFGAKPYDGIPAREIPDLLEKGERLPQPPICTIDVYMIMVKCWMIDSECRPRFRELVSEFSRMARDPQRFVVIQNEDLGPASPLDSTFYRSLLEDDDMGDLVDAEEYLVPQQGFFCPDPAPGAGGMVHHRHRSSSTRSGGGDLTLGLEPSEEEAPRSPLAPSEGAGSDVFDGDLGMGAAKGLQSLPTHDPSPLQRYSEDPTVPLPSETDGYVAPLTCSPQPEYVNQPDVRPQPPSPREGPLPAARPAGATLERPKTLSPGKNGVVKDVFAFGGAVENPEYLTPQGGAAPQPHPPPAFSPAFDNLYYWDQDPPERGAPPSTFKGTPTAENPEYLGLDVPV
Experimental: This immunofluorescence end point assay measures the ability of a test compound to inhibit the phosphorylation of erbB2 in a MCF7 (breast carcinoma) derived cell line which was generated by transfecting MCF7 cells with the full length erbB2 gene using standard methods to give a cell line that overexpresses full length wild type erbB2 protein (hereinafter ‘Clone 24’ cells).
Clone 24 cells were cultured in Growth Medium (phenol red free Dulbecco's modified Eagle's medium (DMEM) containing 10% foetal bovine serum, 2 mM glutamine and 1.2 mg/ml G418) in a 7.5% CO2 air incubator at 37° C. Cells were harvested from T75 stock flasks by washing once in PBS (phosphate buffered saline, pH7.4, Gibco No. 10010-015) and harvested using 2 mls of Trypsin (1.25 mg/ml)/ethylaminediaminetetraacetic acid (EDTA) (0.8 mg/ml) solution. The cells were resuspended in Growth Medium. Cell density was measured using a haemocytometer and viability was calculated using Trypan Blue solution before being further diluted in Growth Medium and seeded at a density of 1×10^4 cells per well (in 100 ul) into clear bottomed 96 well plates (Packard, No. 6005182).
3 days later, Growth Medium was removed from the wells and replaced with 100 ul Assay Medium (phenol red free DMEM, 2 mM glutamine, 1.2 mg/ml G418) either with or without erbB inhibitor compound. Plates were returned to the incubator for 4 hrs and then 20 μl of 20% formaldehyde solution in PBS was added to each well and the plate was left at room temperature for 30 minutes. This fixative solution was removed with a multichannel pipette, 100 μl of PBS was added to each well and then removed with a multichannel pipette and then 50 μl PBS was added to each well. Plates were then sealed and stored for up to 2 weeks at 4° C.
Immunostaining was performed at room temperature. […]
The Fluorescence signal is each well was measured using an Acumen Explorer Instrument (Acumen Bioscience Ltd.), a plate reader that can be used to rapidly quantitate features of images generated by laser-scanning. […]

IC50 (EGFR tyrosine kinase) [µM] | IC50 (erbB2 tyrosine kinase) [µM] | IC50 (erbB2) [µM] | Compound
2.4 | 0.034 | 0.19 | O=C(CO)N1CCC[C@H](COc2cccc3ncnc(Nc4ccc(OCc5cscn5)c(Cl)c4)c23)C1 [Example 78, 2-((3S)-3-{[(4-{[3-chloro-4-(1,3-thiazol-4-ylmethoxy)phenyl]amino}quinazolin-5-yl)oxy]methyl}piperidin-1-yl)-2-oxoethanol]
 | 0.048 | 1.4 | CN(C)CC(=O)N1CCC[C@@H]1COc1cccc2ncnc(Nc3ccc(OCc4cncs4)c(Cl)c3)c12 [Example 25, N-[3-Chloro-4-(1,3-thiazol-5-ylmethoxy)phenyl]-5-({(2R)-1-[(dimethylamino)acetyl]pyrrolidin-2-yl}methoxy)quinazolin-4-amine]
33 | 0.63 | 2.4 | Cc1cccc(COc2ccc(Nc3ncnc4cccc(OC[C@@H]5CCCN5C(=O)CO)c34)cc2Cl)n1 [Example 40]
